Among the data in patent US11234437B2 (priority 2017, dated 2022) are inhibition of growth, pest or weed control and melting point values, retold here.

By melting point is commonly meant the temperature, or range, at which the solid turns liquid.

Data set [1] relates to Magnaporthe grisea (Pyricularia oryzae). The experiment in a line: microbe, parasite or virus in culture. The class given is cell-based. Particulars: read-out: control of Magnaporthe grisea.
Data set [2] deals with Fusarium culmorum. As to the kind of experiment: microbe, parasite or virus in culture. The class given is cell-based. Particulars: read-out: control of Fusarium culmorum.
The test system of a further data set is Sclerotinia sclerotiorum. The experiment in a line: Sclerotinia sclerotiorum / liquid culture (cottony rot). In kind it is cell-based. Particulars: compared to untreated control. As for the experimental part:
Sclerotinia sclerotiorum/Liquid Culture (Cottony Rot)
Mycelia fragments of a newly grown liquid culture of the fungus are directly mixed into nutrient broth (Vogels broth). After placing a (DMSO) solution of test compound into a microtiter plate (96-well format) the nutrient broth containing the fungal material is added. The test plates are incubated at 24° C. and the inhibition of growth is determined photometrically 3-4 days after application.

Data set [3] has as its system Botryotinia fuckeliana (Botrytis cinerea). As to the kind of experiment: Botryotinia fuckeliana (Botrytis cinerea) / liquid culture (gray mould). In kind it is cell-based. Particulars: compared to untreated control. As for the experimental part:
Botryotinia fuckeliana (Botrytis cinerea)/Liquid Culture (Gray Mould)
Conidia of the fungus from cryogenic storage are directly mixed into nutrient broth (Vogels broth). After placing a (DMSO) solution of test compound into a microtiter plate (96-well format), the nutrient broth containing the fungal spores is added. The test plates are incubated at 24° C. and the inhibition of growth is determined photometrically 3-4 days after application.

For data set [4], the system named is Gibberella zeae (Fusarium graminearum). As to the kind of experiment: whole plant or invertebrate. The class given is in vivo. Particulars: in Triticum aestivum, read-out: control of Gibberella zeae.
For data set [5], the system named is Glomerella lagenarium (Colletotrichum lagenarium). The experiment in a line: Glomerella lagenarium (Colletotrichum lagenarium) / liquid culture (anthracnose). The class given is cell-based. Particulars: Colletotrichum orbiculare, compared to untreated control. As for the experimental part: Conidia of the fungus from cryogenic storage are directly mixed into nutrient broth (PDB potato dextrose broth). After placing a (DMSO) solution of test compound into a microtiter plate (96-well format), the nutrient broth containing the fungal spores is added. The test plates are incubated at 24° C. and the inhibition of growth is measured photometrically 3-4 days after application.

The subject of data set [6] is Fusarium culmorum. The experiment in a line: whole plant or invertebrate. The class given is in vivo. Particulars: in Triticum aestivum, read-out: control of Fusarium culmorum.
Data set [7] concerns Monographella nivalis (Microdochium nivale). As to the kind of experiment: Monographella nivalis (Microdochium nivale) / liquid culture (foot rot cereals). The class given is cell-based. Particulars: compared to untreated control. On the procedure:
Monographella nivalis (Microdochium nivale)/Liquid Culture (Foot Rot Cereals)
Conidia of the fungus from cryogenic storage are directly mixed into nutrient broth (PDB potato dextrose broth). After placing a (DMSO) solution of test compound into a microtiter plate (96-well format), the nutrient broth containing the fungal spores is added. The test plates are incubated at 24° C. and the inhibition of growth is determined photometrically 4-5 days after application.

Molecules are shown by their SMILES.

For `C[C@](Cc1ccccc1)(CC1(F)CC1)NC(=O)c1cnc2c(F)cccc2c1` [Compound F-24, N-[(1S)-1-benzyl-2-(1-fluorocyclopropyl)-1-methyl-ethyl]-8-fluoro-quinoline-3-carboxamide], the inhibition of growth at 20 ppm (in data set [1]; in the data set on Sclerotinia sclerotiorum; in data set [7]) was no less than 80% in each case. For the same compound, the inhibition of growth at 200 ppm (with Fusarium culmorum [2]; in data set [3]; in data set [5]) was no less than 80% each time. Moreover, the pest or weed control at 200 ppm (in data set [4]; with Fusarium culmorum [6]) was no less than 80% each time.
Consider `CC1(C[C@](C)(Cc2ccccc2)NC(=O)c2cnc3c(F)cccc3c2)CC1` [Compound F-25, N-[(1R)-1-benzyl-1-methyl-2-(1-methylcyclopropyl)ethyl]-8-fluoro-quinoline-3-carboxamide], for which the inhibition of growth at 20 ppm (in data set [1]; with Sclerotinia sclerotiorum) was no less than 80% each time. For the same compound, the inhibition of growth at 200 ppm (in the data set on Fusarium culmorum [2]; in data set [3]; in [5]) was no less than 80% each time. For the same compound, the pest or weed control at 200 ppm (in data set [4]; in the data set with Fusarium culmorum [6]) was no less than 80% throughout.
`C[C@@](Cc1cccc(F)c1)(CC(F)(F)F)NC(=O)c1cnc2c(F)cccc2c1` [Compound F-27, 8-fluoro-N-[(1R)-3,3,3-trifluoro-1-[(3-fluorophenyl)methyl]-1-methyl-propyl]quinoline-3-carboxamide]: the inhibition of growth at 20 ppm in data set [1] and in [7] was no less than 80% in each case. For the same compound, the inhibition of growth at 200 ppm (in the data set on Fusarium culmorum [2]; in data set [3]; in data set [5]) was no less than 80% in each case. Further, the pest or weed control at 200 ppm (in [4]; with Fusarium culmorum [6]) was no less than 80% throughout.
As to `C[C@](Cc1cccc(F)c1)(CC(F)(F)F)NC(=O)c1cnc2c(F)cccc2c1` [Compound F-28, 8-fluoro-N-[(1S)-3,3,3-trifluoro-1-[(3-fluorophenyl)methyl]-1-methyl-propyl]quinoline-3-carboxamide], the inhibition of growth at 20 ppm (in data set [1]; in the data set with Sclerotinia sclerotiorum) was no less than 80% throughout. In addition, the inhibition of growth at 200 ppm (in the data set on Fusarium culmorum [2]; in data set [3]; in data set [5]) was no less than 80% throughout. Further, the pest or weed control at 200 ppm (in data set [4]; in the data set on Fusarium culmorum [6]) was no less than 80% each time.
For the compound `CC(C)C[C@](C)(Cc1cccc(F)c1)NC(=O)c1cnc2c(F)cccc2c1` [Compound F-29, 8-fluoro-N-[(1R)-1-[(3-fluorophenyl)methyl]-1,3-dimethyl-butyl]quinoline-3-carboxamide], the inhibition of growth at 20 ppm (in [1]; in the data set on Sclerotinia sclerotiorum) was no less than 80% in each case. In addition, the inhibition of growth at 200 ppm (in the data set on Fusarium culmorum [2]; in data set [3]; in data set [5]) was no less than 80% each time. Besides, the pest or weed control at 200 ppm (in data set [4]; in the data set on Fusarium culmorum [6]) was no less than 80% each time.
As for `C[C@](Cc1ccccc1)(CC(F)(F)F)NC(=O)c1cnc2ccccc2c1` [Compound F-34, N-[(1S)-1-benzyl-3,3,3-trifluoro-1-methyl-propyl]quinoline-3-carboxamide], the inhibition of growth at 20 ppm (in data set [1]; with Sclerotinia sclerotiorum; in data set [7]) was no less than 80% throughout. In addition, the inhibition of growth at 200 ppm (in the data set with Fusarium culmorum [2]; in data set [3]; in data set [5]) was no less than 80% in each case. Moreover, the pest or weed control at 200 ppm (in [4]; in the data set on Fusarium culmorum [6]) was no less than 80% in each case.
For the compound `C=C(Cl)C[C@](C)(Cc1ccccc1)NC(=O)c1cnc2c(F)cccc2c1` [Compound F-35], the inhibition of growth at 20 ppm (in data set [1]; in the data set with Sclerotinia sclerotiorum; in [7]) was no less than 80% in each case. Also, the inhibition of growth at 200 ppm (with Fusarium culmorum [2]; in data set [3]; in data set [5]) was no less than 80% each time. The pest or weed control at 200 ppm (in data set [4]; in the data set on Fusarium culmorum [6]) was no less than 80% in each case.
In the case of `C=C(Cl)CC(C)(Cc1ccccc1)NC(=O)c1cnc2c(F)cccc2c1` (stereo not drawn) [X.001], the melting point fell in the range of 56 to 59 °C. The inhibition of growth at 20 ppm in data set [1] is no less than 80%. Also, in the data set on Fusarium culmorum [2], the inhibition of growth at 200 ppm was no less than 80%. Besides, the inhibition of growth at 20 ppm in the data set with Sclerotinia sclerotiorum was no less than 80%. Further, in [3], the inhibition of growth at 200 ppm was no less than 80%. For the same compound, the pest or weed control at 200 ppm in data set [4] was no less than 80%. In [5], this compound showed an inhibition of growth at 200 ppm of no less than 80%. For the same compound, in the data set with Fusarium culmorum [6], the pest or weed control at 200 ppm is no less than 80%. Further, the inhibition of growth at 20 ppm in data set [7] was no less than 80%.
The compound `CC(Cc1ccccc1)(CC(F)(F)F)NC(=O)c1cnc2ccccc2c1` (stereo not drawn) [X.020, N-(1-benzyl-3,3,3-trifluoro-1-methyl-propyl)quinoline-3-carboxamide] registered a melting point of 130 to 132 °C. For the same compound, the inhibition of growth at 20 ppm in data set [1] is no less than 80%. Also, the inhibition of growth at 200 ppm in the data set on Fusarium culmorum [2] is no less than 80%. Also, the inhibition of growth at 20 ppm in the data set on Sclerotinia sclerotiorum is no less than 80%. Further, in [3], the inhibition of growth at 200 ppm is no less than 80%. Also, in data set [4], the pest or weed control at 200 ppm is no less than 80%. Also, in data set [5], the inhibition of growth at 200 ppm is no less than 80%. Further, in the data set with Fusarium culmorum [6], the pest or weed control at 200 ppm is no less than 80%.
